Data reported in patent US9006388B2, “Covalent attachment of ligands to nucleophilic proteins guided by non-covalent” (priority 2003, dated 2015).

Legend:
[1] = molecular target: calmodulin (Homo sapiens, UniProt P0DP23); experiment: Irreversible CAL binding by calmodulin
[2] = test system: monoclonal anti-VIP IgG clone c23.5; experiment: Covalent CAL binding by monoclonal anti-VIP IgG c23.5
[3] = test system: plasma proteins; experiment: CAL reaction in the presence of human plasma; format: binding; conditions: human plasma 1% v/v, CAL 10 μM, 1 h
[4] = molecular target: T1, gp120 (MN strain) (Human immunodeficiency virus type 1 group M subtype B, UniProt P05877); experiment: Irreversible hapten CAL binding by gp120; set-up: species or system HIV
T1 construct: purchased

[5] = test system: murine splenocytes; experiment: Hapten CAL I reactivity with spleen cells (microscopy, flow cytometry); format: cell-based, BALB/c mouse
Text: BCR covalent reaction with hapten CALs. hapten CALs such as compound I (FIG. 19) react irreversibly with nucleophilic sites in conventional serine proteases and Abs (3,35,44-47). Methods for synthesis of this compound, preparation of B cells from mice, flow cytometric analysis of binding to the cells and electrophoretic measurement of covalent binding to Ig subunits are described in refs 3,35,48. To evaluate the nucleophilic reactivity expressed on the surface of B cells in the preimmune repertoire (viz., the repertoire developed spontaneously without purposeful immunological challenge), viable splenocytes from BALB/c mice were treated with hapten CAL I. The control compound II is identical in structure to hapten CAL I, except that the phosphonate group is not esterified, which results in loss of covalent reactivity with nucleophilic residues (3,35). […] Flow cytometry confirmed the microscopy results. […] In 3 repeat experiments, the proportion of hapten CAL I-stained cells that were positive for the B cell marker CD19 was 82±4% (FIG. 20B). […] Most of the CAL fluorescence was restricted to the surfaces of the B cells (FIG. 20F).

[6] = test system: human IgG; format: binding
[7] = test system: IgG; format: biochemical, human
[8] = molecular target: T2, trypsin (Sus scrofa, UniProt P00761); experiment: Irreversible hapten CAL binding by trypsin; set-up: species or system porcine; conditions: hapten CAL 100 μM
T2 construct: purchased Sigma type IX

[9] = test system: nine purified proteins; experiment: Screening of purified proteins for irreversible hapten CAL binding; conditions: protein 1 μM, CAL 0.5 mM, 16 h, 37° C.
[10] = test system: human polyclonal IgG HS-2; experiment: Irreversible inhibition of HS-2 IgG-catalyzed [Tyr10-125I]-VIP cleavage; format: biochemical; conditions: IgG 2 μM preincubated 16 h, unreacted CAL removed
[11] = flow cytometry, 100 μM, 4 hours

T2 sequence (P00761 9-231): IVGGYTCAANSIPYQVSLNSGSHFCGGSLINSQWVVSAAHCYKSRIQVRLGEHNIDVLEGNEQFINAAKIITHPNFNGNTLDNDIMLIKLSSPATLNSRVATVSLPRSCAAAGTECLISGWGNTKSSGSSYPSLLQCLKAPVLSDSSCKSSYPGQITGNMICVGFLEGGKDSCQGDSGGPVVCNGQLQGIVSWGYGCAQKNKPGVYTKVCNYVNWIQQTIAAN

Row | Molecule | second-order rate constant for reaction with calmodulin ([1]; calmodulin 1 μM, 3 10 μM or 1 0.5 mM, 37° C.) | Vapp values for the two subunits of anti-VIP Ab [2] | reaction with plasma proteins [3] | Kd [4] | first-order rate constant of covalent adduct formation k2 ([4]; pH 7.4, 37° C.) | loss of viability of cells (trypan blue exclusion) [5] | proportion of hapten CAL I-stained cells positive for CD19 ([5]; 3 repeat experiments) | cells displaying intense staining ([5]; UV microscope, 400 lymphocytes counted, N 3) | cells with fluorescence intensities exceeding compound II-treated cells [5, 11] | subpopulation with very high fluorescence intensity [5, 11] | velocity for IgG relative to trypsin [6] | velocity of covalent I adduct formation with IgG [6] | inhibition of IgG-catalyzed peptide-MCA cleavage [7] | velocity of covalent I adduct formation with trypsin [8] | proteins forming irreversible adducts [9] | IC50 [10] | inhibition of 3-calmodulin binding ([1]; VIP 100 μM, 3 10 μM)
1 | N=C(N)c1ccc(C(NC(=O)CCCCCNC(=O)CCCC[C@@H]2SC[C@@H]3NC(=O)N[C@@H]32)P(=O)(Oc2ccccc2)Oc2ccccc2)cc1 (some centres unmarked) [hapten CAL I, Diphenyl N-(6-biotinamidohexanoyl)amino(4-amidinophenyl)methanephosphonate] | 0.00353 ± 0.000283 M⁻¹ s⁻¹ | nearly equivalent | little or no adduct formation | 710 ± 500 µM | 0.015 ± 0.007 min⁻¹ | No loss of viability | 82±4% | 11±2 | Seventy nine | 14% | 14.5 fold | 172.7±14.2 AAU/min | inhibited | 11.9±0.6 AAU/min | Seven of the nine | 36 µM | –
2 | VIP: 28 amino acid peptide, devoid of the phosphonate group [reference compound] | – | – | – | – | – | – | – | – | – | – | – | – | – | – | – | – | 65%
